Assays:
[1] = tested on: common lambsquaters; assay: Upland pre-emergence treatment test, common lambsquaters; type: in vivo, common lambsquaters (Chenopodium album); conditions: pre-emergence soil surface spray, 80 g/ha, 20th day after treatment, greenhouse
From the text: (§1) 97 Parts by weight of talc (trade name: Zeaklite, supplied by Zeaklite Industry) as a carrier, 1.5 parts by weight of alkylarylsulfonic acid salt (trade name: Neoplex, supplied by Kao-Atlas K.K.) as a surfactant and 1.5 parts by weight of a nonionic and anionic surfactant (trade names Sorpol 800A, supplied by Toho Chemical Co., Ltd.) were uniformly pulverized and mixed to prepare a carrier for a wettable powder.
(§2) 90 Parts by weight of the above carrier for a wettable powder and 10 parts by weight of one of the compounds of the present invention were uniformly pulverized and mixed to obtain herbicides. Further, in Comparative Herbicide Examples, comparative herbicides were also prepared from the following compounds (A) and (B) in the same manner.
(§3) Herbicidal efficacy and phytotoxicity to crops were determined on the basis of the ratio of remaining plant weight to plant weight in non-treated plot=(remaining plant weight in treated plot/plant weight in non-treated-plot)×100. The ratings were applied to the following biological tests.
(§4) Seeds of weeds such as velvetleaf, common lambsquaters, redroot pigweed, common ragweed, green foxtail and large crabgrass and seeds of corn were sown in 1/5,000-are Wagner pots filled with upland soil, and covered with upland soil. Then, a predetermined amount of the herbicide prepared in the above (1) was suspended in water, and the suspension was uniformly sprayed onto the soil surface at a rate of 2,000 liters/hectare. Then, the seeds were grown in a greenhouse, and on the 20th day after the treatment, the herbicide was evaluated for herbicidal efficacy and phytotoxicity to corn on the basis of the ratings shown in (2).

[2] = tested on: velvetleaf; assay: Upland post-emergence treatment test, velvetleaf; type: in vivo, velvetleaf (Abutilon theophrasti); conditions: post-emergence spray at 3-4 leaf stage, 80 g/ha, 30th day after treatment, greenhouse
From the text: as §1, §2, §3
(§5) Seeds of weeds velvetleaf, redroot pigweed, common ragweed, green foxtail and large crabgrass and seeds of corn were sown in 1/5,000-are Wagner pots filled with upland soil, and covered with upland soil. The seeds were grown in a greenhouse, and at the stage of 3˜4 leaves of these plants, a predetermined amount of the herbicide prepared in the above (1) was suspended in water, and the suspension was uniformly sprayed onto leaf and stalk portions at a rate of 2,000 liters/hectare. Then, the plants were grown in the greenhouse, and on the 30th day after the treatment, the herbicide was evaluated for herbicidal efficacy and phytotoxicity to the corn on the basis of the ratings shown in (2).

[3] = tested on: large crabgrass; assay: Upland pre-emergence treatment test, large crabgrass; type: in vivo; conditions: pre-emergence soil surface spray, 80 g/ha, 20th day after treatment, greenhouse
From the text: as §1, §2, §3, §4

[4] = tested on: common ragweed; assay: Upland post-emergence treatment test, common ragweed; type: in vivo, common ragweed (Ambrosia artemisilfolia); conditions: post-emergence spray at 3-4 leaf stage, 80 g/ha, 30th day after treatment, greenhouse
From the text: as §1, §2, §3, §5

[5] = tested on: velvetleaf; assay: Upland pre-emergence treatment test, velvetleaf; type: in vivo, velvetleaf (Abutilon theophrasti); conditions: pre-emergence soil surface spray, 80 g/ha, 20th day after treatment, greenhouse
From the text: as §1, §2, §3, §4

[6] = tested on: corn; assay: Upland pre-emergence treatment test, phytotoxicity to corn; type: in vivo; conditions: pre-emergence soil surface spray, 80 g/ha, 20th day after treatment, greenhouse
From the text: as §1, §2, §3, §4

[7] = tested on: green foxtail; assay: Upland pre-emergence treatment test, green foxtail; type: in vivo, green foxtail (Setaria viridis); conditions: pre-emergence soil surface spray, 80 g/ha, 20th day after treatment, greenhouse
From the text: as §1, §2, §3, §4

[8] = tested on: green foxtail; assay: Upland post-emergence treatment test, green foxtail; type: in vivo, green foxtail (Setaria viridis); conditions: post-emergence spray at 3-4 leaf stage, 80 g/ha, 30th day after treatment, greenhouse
From the text: as §1, §2, §3, §5

[9] = tested on: redroot pigweed; assay: Upland pre-emergence treatment test, redroot pigweed; type: in vivo, redroot pigweed (Amaranthus retroflexus); conditions: pre-emergence soil surface spray, 80 g/ha, 20th day after treatment, greenhouse
From the text: as §1, §2, §3, §4

[10] = tested on: large crabgrass; assay: Upland post-emergence treatment test, large crabgrass; type: in vivo; conditions: post-emergence spray at 3-4 leaf stage, 80 g/ha, 30th day after treatment, greenhouse
From the text: as §1, §2, §3, §5

[11] = tested on: common ragweed; assay: Upland pre-emergence treatment test, common ragweed; type: in vivo, common ragweed (Ambrosia artemisilfolia); conditions: pre-emergence soil surface spray, 80 g/ha, 20th day after treatment, greenhouse
From the text: as §1, §2, §3, §4

[12] = tested on: redroot pigweed; assay: Upland post-emergence treatment test, redroot pigweed; type: in vivo, redroot pigweed (Amaranthus retroflexus); conditions: post-emergence spray at 3-4 leaf stage, 80 g/ha, 30th day after treatment, greenhouse
From the text: as §1, §2, §3, §5

[13] = tested on: corn; assay: Upland post-emergence treatment test, phytotoxicity to corn; type: in vivo; conditions: post-emergence spray at 3-4 leaf stage, 80 g/ha, 30th day after treatment, greenhouse
From the text: as §1, §2, §3, §5
Note: ranges in brackets are in %.

Cc1c(C(=O)c2cnn(C)c2OS(C)(=O)=O)ccc2c1C(C)(C)CS2(=O)=O [Compound 2]
Herbicidal Efficacy BB = Common lambsquaters [1]: 5 (0) | Herbicidal Efficacy AA = Velvetleaf [2]: 5 (0) | Herbicidal Efficacy FF = Large crabgrass [3]: 5 (0) | Herbicidal Efficacy DD = Common ragweed [4]: 5 (0) | Herbicidal Efficacy AA = Velvetleaf [5]: 5 (0) | Phytotoxicity Corn [6]: − (100) | Herbicidal Efficacy EE = Green foxtail [7]: 5 (0) | Herbicidal Efficacy EE = Green foxtail [8]: 5 (0) | Herbicidal Efficacy CC = Rough Pigweed [9]: 5 (0) | Herbicidal Efficacy FF = Large crabgrass [10]: 5 (0) | Herbicidal Efficacy DD = Common ragweed [11]: 5 (0) | Herbicidal Efficacy CC = Redroot Pigweed [12]: 5 (0) | Phytotoxicity Corn [13]: − (100)
